System: HBV
Assay: HBV-DNA antiviral assay using HepG2.117 cells (intracellular HBV DNA by qPCR)
Assay type: cell-based, genotype D HBV
Conditions: Hepatitis B virus, 72 h, HBV DNA inhibition, 3 days incubation, 2% DMSO
Summary of the method: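 Endpoints are intracellular HBV DNA by qPCR (interpolated from a gBlock standard curve) and ATP-based viability in duplicate plates. Doxycycline-free HepG2.117 Tet-off cells received compounds (9 concentrations, 4-fold steps, 2% DMSO) for 3 days. Inhibition normalised to DMSO wells; EC50/EC90/CC50 by curve fitting.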

Row | Compound | EC50
1 | Cc1nnc(-c2ccc(-n3c(=O)c4c(n5ncc(CC(C)C)c35)CN(C(=O)c3ccc(Br)c(C(F)(F)F)c3)[C@H](C)C4)cc2)[nH]1 (stereo in doubt) [Compound 59a, rac-(11R)-12-[4-bromo-3-(trifluoromethyl)benzoyl]-5-isobutyl-11-methyl-7-[4-(5-methyl-4H-1,2,4-triazol-3-yl)phenyl]-2,3,7,12-tetrazatricyclo[7.4.0.0^2,6]trideca-1(9),3,5-trien-8-one] | < 50 nM
2 | Cc1nnc(-c2ccc(-n3c(=O)c4c(n5ncc(CC(C)C)c35)CN(C(=O)c3ccc(Br)c(C(F)(F)F)c3)[C@@H](C)C4)cc2)[nH]1 (stereo in doubt) [Compound 59b, rac-(11S)-12-[4-bromo-3-(trifluoromethyl)benzoyl]-5-isobutyl-11-methyl-7-[4-(5-methyl-4H-1,2,4-triazol-3-yl)phenyl]-2,3,7,12-tetrazatricyclo[7.4.0.0^2,6]trideca-1(9),3,5-trien-8-one] | 50 to 500 nM
3 | CNc1n[nH]c2cc(-n3c(=O)c4c(n5ncc(CC(C)C)c35)CN(C(=O)c3ccc(Br)c(C(F)(F)F)c3)[C@H](C)C4)ccc12 (stereo in doubt) [Compound 61a, rac-(11R)-12-[4-bromo-3-(trifluoromethyl)benzoyl]-5-isobutyl-11-methyl-7-[3-(methylamino)-1H-indazol-6-yl]-2,3,7,12-tetrazatricyclo[7.4.0.0^2,6]trideca-1(9),3,5-trien-8-one] | < 50 nM
4 | CNc1n[nH]c2cc(-n3c(=O)c4c(n5ncc(CC(C)C)c35)CN(C(=O)c3ccc(Br)c(C(F)(F)F)c3)[C@@H](C)C4)ccc12 (stereo in doubt) [Compound 61b, rac-(11S)-12-[4-bromo-3-(trifluoromethyl)benzoyl]-5-isobutyl-11-methyl-7-[3-(methylamino)-1H-indazol-6-yl]-2,3,7,12-tetrazatricyclo[7.4.0.0^2,6]trideca-1(9),3,5-trien-8-one] | 50 to 500 nM
5 | Cc1nn[nH]c1-c1ccc(-n2c(=O)c3c(n4ncc(CC(C)C)c24)CN(C(=O)c2ccc(Br)c(C(F)(F)F)c2)[C@H](C)C3)cc1 (stereo in doubt) [Compound 62a, rac-(11R)-12-[4-bromo-3-(trifluoromethyl)benzoyl]-5-isobutyl-11-methyl-7-[4-(4-methyl-1H-triazol-5-yl)phenyl]-2,3,7,12-tetrazatricyclo[7.4.0.0^2,6]trideca-1(9),3,5-trien-8-one] | < 50 nM
6 | Cc1nn[nH]c1-c1ccc(-n2c(=O)c3c(n4ncc(CC(C)C)c24)CN(C(=O)c2ccc(Br)c(C(F)(F)F)c2)[C@@H](C)C3)cc1 (stereo in doubt) [Compound 62b, rac-(11S)-12-[4-bromo-3-(trifluoromethyl)benzoyl]-5-isobutyl-11-methyl-7-[4-(4-methyl-1H-triazol-5-yl)phenyl]-2,3,7,12-tetrazatricyclo[7.4.0.0^2,6]trideca-1(9),3,5-trien-8-one] | 50 to 500 nM
7 | Cc1nn[nH]c1-c1ccc(-n2c(=O)c3c(n4ncc(CC(C)C)c24)CN(C(=O)c2ccc(Cl)c(C(F)(F)F)c2)[C@H](C)C3)cc1 (stereo in doubt) [Compound 63a, rac-(11R)-12-[4-chloro-3-(trifluoromethyl)benzoyl]-5-isobutyl-11-methyl-7-[4-(4-methyl-1H-triazol-5-yl)phenyl]-2,3,7,12-tetrazatricyclo[7.4.0.0^2,6]trideca-1(9),3,5-trien-8-one] | < 50 nM
8 | Cc1nn[nH]c1-c1ccc(-n2c(=O)c3c(n4ncc(CC(C)C)c24)CN(C(=O)c2ccc(Cl)c(C(F)(F)F)c2)[C@@H](C)C3)cc1 (stereo in doubt) [Compound 63b, rac-(11S)-12-[4-chloro-3-(trifluoromethyl)benzoyl]-5-isobutyl-11-methyl-7-[4-(4-methyl-1H-triazol-5-yl)phenyl]-2,3,7,12-tetrazatricyclo[7.4.0.0^2,6]trideca-1(9),3,5-trien-8-one] | 500 to 5000 nM

Source: patent US11820773B2, “Tricyclic compounds” (ALIGOS THERAPEUTICS, INC., priority 2020, dated 2023)
